Measurements: patent publication US12052991B2, “Substituted pyridinyloxybenzenes and salts thereof and use thereof as herbicidal agents” (Bayer Aktiengesellschaft, priority 2018, dated 2024)

Assays:
Format in all cases: in vivo
[1] = system: Veronica persica (VERPE); assay: Herbicidal post-emergence action (Table B12); settings: visual rating about 3 weeks after treatment, 100% = plants have died, 0% = like control plants
Summary of the method: (§1)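 Activity was scored visually against untreated plants roughly 3 weeks after treatment, 0% meaning like control and 100% plant death. Application was post-emergence onto green parts at the one-leaf stage, as aqueous suspension/emulsion with 0.5% additive, 600 l/ha, delivering 1280 or 320 g/ha to greenhouse plants in sandy loam.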

[2] = system: Echinochloa crus-galli (ECHCG); assay: Herbicidal pre-emergence action, test C (Table C1); settings: visual scoring after about 3 weeks, 100% = plants have died, 0% = like control plants
Excerpt: (§2) Seeds of mono- and dicotyledonous weed plants were placed in plastic pots in sandy loam soil (doubly sown with one species each of mono- or dicotyledonous weed plants per pot) and covered with soil. The compounds of the invention, formulated in the form of wettable powders (WP) or as emulsion concentrates (EC), were then applied onto the surface of the covering soil as aqueous suspension or emulsion with addition of 0.5% additive at a water application rate of 600 liters per hectare (converted). After the treatment, the pots were placed in a greenhouse and kept under good growth conditions for the test plants. After about 3 weeks, the effect of the preparations was scored visually in comparison with untreated controls as percentages. For example, 100% activity=the plants have died, 0% activity=like control plants. Tables C1 to C12 below show the effects of selected compounds of the general formula (I) according to Table 1 on various harmful plants and an application rate corresponding to 1280 or 320 g/ha, which were obtained by the experimental procedure mentioned above.

[3] = system: Lolium rigidum (LOLRI); assay: Herbicidal pre-emergence action, test C (Table C2); settings: dosage 1280 g/ha; visual scoring after about 3 weeks; 100% = plants have died, 0% = like control plants
Excerpt: as §2

[4] = system: Abutilon theophrasti (ABUTH); assay: Herbicidal pre-emergence action, test C (Table C5); settings: visual scoring after about 3 weeks, 100% = plants have died, 0% = like control plants
Summary of the method: (§3)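 Application rates of 1280 or 320 g/ha were delivered as WP or EC formulations in water with 0.5% additive, 600 L/ha, onto soil covering freshly sown seeds in sandy loam. Pots stayed under good greenhouse growth conditions, and efficacy was rated as visual percent after about 3 weeks.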

[5] = system: Stellaria media (STEME); assay: Herbicidal pre-emergence action, test C (Table C8); settings: visual scoring after about 3 weeks, 100% = plants have died, 0% = like control plants
Summary of the method: as §3

[6] = system: Abutilon theophrasti (ABUTH); assay: Herbicidal post-emergence action (Table B5); settings: rated visually after about 3 weeks, 100% = plants have died, 0% = like control plants
Summary of the method: as §1

[7] = system: Alopecurus myosuroides (ALOMY); assay: Herbicidal pre-emergence action, test C (Table C9); settings: visual scoring after about 3 weeks, 100% = plants have died, 0% = like control plants
Summary of the method: as §3

[8] = system: Alopecurus myosuroides (ALOMY); assay: Herbicidal post-emergence action (Table B9); settings: rated visually after about 3 weeks, 100% = plants have died, 0% = like control plants
Summary of the method: as §1

[9] = system: Digitaria sanguinalis (DIGSA); assay: Herbicidal post-emergence action (Table B10); settings: visual rating about 3 weeks after treatment, 100% = plants have died, 0% = like control plants
Summary of the method: as §1

[10] = system: Bassia scoparia (KCHSC); assay: Herbicidal post-emergence action (Table B11); settings: visual rating about 3 weeks after treatment, 100% = plants have died, 0% = like control plants
Summary of the method: as §1

[11] = system: Amaranthus retroflexus (AMARE); assay: Herbicidal pre-emergence action, test C (Table C6); settings: visual scoring after about 3 weeks, 100% = plants have died, 0% = like control plants
Summary of the method: as §3

[12] = system: Echinochloa crus-galli (ECHCG); assay: Herbicidal post-emergence action (Table B1); settings: 1280 g/ha; rated visually after about 3 weeks; 100% = plants have died, 0% = like control plants
Summary of the method: as §1

[13] = system: Poa annua (POAAN); assay: Herbicidal post-emergence action (Table B3); settings: rated visually after about 3 weeks, 100% = plants have died, 0% = like control plants
Summary of the method: as §1

[14] = system: Digitaria sanguinalis (DIGSA); assay: Herbicidal pre-emergence action, test C (Table C10); settings: visual scoring after about 3 weeks, 100% = plants have died, 0% = like control plants
Summary of the method: as §3

[15] = system: Veronica persica (VERPE); assay: Herbicidal pre-emergence action, test C (Table C12); settings: visual scoring vs untreated controls
Summary of the method: as §3

[16] = system: Setaria viridis (SETVI); assay: Herbicidal pre-emergence action, test C (Table C4); settings: visual scoring after about 3 weeks, 100% = plants have died, 0% = like control plants
Summary of the method: as §3

[17] = system: Stellaria media (STEME); assay: Herbicidal post-emergence action (Table B8); settings: visual rating about 3 weeks after treatment, 100% = plants have died, 0% = like control plants
Summary of the method: as §1

[18] = system: harmful plants ABUTH, AMARE, ECHCG, LOLRI, MATIN, POAAN, SETVI, STEME, ALOMY, DIGSA, KCHSC and VERPE; assay: Herbicidal post-emergence action, summary of Tables B1-B12; settings: application rate of 1280 or 320 g of active ingredient per hectare; summary in words
Summary of the method: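 Activity scored by eye roughly 3 weeks post-treatment against untreated plants, from 0% (no effect) to 100% (plants dead). Application rates were 1280 or 320 g/ha, as aqueous WP/EC spray plus 0.5% additive at 600 L/ha, onto one-leaf-stage weeds grown 2–3 weeks in sandy loam.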

[19] = system: Bassia scoparia (KCHSC); assay: Herbicidal pre-emergence action, test C (Table C11); settings: visual scoring vs untreated controls
Excerpt: as §2

[20] = system: Setaria viridis (SETVI); assay: Herbicidal post-emergence action (Table B4); settings: rated visually after about 3 weeks, 100% = plants have died, 0% = like control plants
Description: Seeds of mono- and dicotyledonous weed plants were placed in plastic pots in sandy loam soil (doubly sown with in each case one species of mono- or dicotyledonous weed plants per pot), covered with soil and cultivated in a greenhouse under controlled growth conditions. 2 to 3 weeks after sowing, the test plants were treated at the one-leaf stage. The compounds of the invention, formulated in the form of wettable powders (WP) or as emulsion concentrates (EC), were applied onto the green parts of the plants as aqueous suspension or emulsion with addition of 0.5% additive at a water application rate of 600 liters per hectare (converted). After the test plants had been kept in the greenhouse under optimum growth conditions for about 3 weeks, the activity of the preparations was rated visually in comparison to untreated controls. For example, 100% activity=the plants have died, 0% activity=like control plants. Tables B1 to B12 below show the effects of selected compounds of the general formula (I) according to Table 1 on various harmful plants and an application rate corresponding to 1280 or 320 g/ha, which were obtained by the experimental procedure mentioned above.

[21] = system: Amaranthus retroflexus (AMARE); assay: Herbicidal post-emergence action (Table B6); settings: visual rating about 3 weeks after treatment, 100% = plants have died, 0% = like control plants
Summary of the method: as §1

[22] = system: harmful plants ABUTH, AMARE, ECHCG, LOLRI, MATIN, POAAN, SETVI, STEME, ALOMY, DIGSA, KCHSC and VERPE; assay: Herbicidal pre-emergence action (test C), summary of Tables C1-C12; settings: application rate of 1280 or 320 g of active ingredient per hectare; summary in words
Summary of the method: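 Visual % damage versus untreated plants (0% = like control, 100% = died) was scored after about 3 weeks in the greenhouse. Before emergence, seeds sown in sandy loam got a soil-surface spray of compound as WP or EC plus 0.5% additive, using 600 L/ha water at rates of 1280 or 320 g/ha.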

N#Cc1cccc(Oc2ccc(Cl)cn2)c1-c1cc(C(F)F)no1 [Example 1-55]
Post-emergence action against Veronica persica (VERPE) ([1]; dosage 320 g/ha): 100%
Post-emergence action against Veronica persica (VERPE) ([1]; dosage 1280 g/ha): 100%
Pre-emergence action against Echinochloa crus-galli (ECHCG) ([2]; dosage 320 g/ha): 100%
Pre-emergence action against Echinochloa crus-galli (ECHCG) ([2]; dosage 1280 g/ha): 100%
Pre-emergence action against Lolium rigidum (LOLRI) [3]: 100%
Pre-emergence action against Abutilon theophrasti (ABUTH) ([4]; dosage 320 g/ha): 100%
Pre-emergence action against Abutilon theophrasti (ABUTH) ([4]; dosage 1280 g/ha): 100%
Pre-emergence action against Stellaria media (STEME) ([5]; dosage 320 g/ha): 100%
Pre-emergence action against Stellaria media (STEME) ([5]; dosage 1280 g/ha): 100%
Post-emergence action against Abutilon theophrasti (ABUTH) ([6]; 320 g/ha): 100%
Post-emergence action against Abutilon theophrasti (ABUTH) ([6]; 1280 g/ha): 100%
Pre-emergence action against Alopecurus myosuroides (ALOMY) ([7]; dosage 320 g/ha): 100%
Pre-emergence action against Alopecurus myosuroides (ALOMY) ([7]; dosage 1280 g/ha): 100%
Post-emergence action against Alopecurus myosuroides (ALOMY) ([8]; 320 g/ha): 100%
Post-emergence action against Alopecurus myosuroides (ALOMY) ([8]; 1280 g/ha): 100%
Post-emergence action against Digitaria sanguinalis (DIGSA) ([9]; dosage 320 g/ha): 100%
Post-emergence action against Digitaria sanguinalis (DIGSA) ([9]; dosage 1280 g/ha): 100%
Post-emergence action against Bassia scoparia (KCHSC) ([10]; dosage 320 g/ha): 100%
Post-emergence action against Bassia scoparia (KCHSC) ([10]; dosage 1280 g/ha): 100%
Pre-emergence action against Amaranthus retroflexus (AMARE) ([11]; dosage 320 g/ha): 100%
Pre-emergence action against Amaranthus retroflexus (AMARE) ([11]; dosage 1280 g/ha): 100%
Post-emergence action against Echinochloa crus-galli (ECHCG) [12]: 100%
Post-emergence action against Poa annua (POAAN) ([13]; 320 g/ha): 100%
Post-emergence action against Poa annua (POAAN) ([13]; 1280 g/ha): 100%
Pre-emergence action against Digitaria sanguinalis (DIGSA) ([14]; dosage 320 g/ha): 100%
Pre-emergence action against Digitaria sanguinalis (DIGSA) ([14]; dosage 1280 g/ha): 100%
Pre-emergence action against Veronica persica (VERPE) ([15]; dosage 320 g/ha): 100%
Pre-emergence action against Veronica persica (VERPE) ([15]; dosage 1280 g/ha): 100%
Pre-emergence action against Setaria viridis (SETVI) ([16]; dosage 320 g/ha): 100%
Pre-emergence action against Setaria viridis (SETVI) ([16]; dosage 1280 g/ha): 100%
Post-emergence action against Stellaria media (STEME) ([17]; dosage 320 g/ha): 100%
Post-emergence action against Stellaria media (STEME) ([17]; dosage 1280 g/ha): 100%
herbicidal activity against the harmful plants of Tables B1-B12 in post-emergence treatment [18]: very good herbicidal activity
Pre-emergence action against Bassia scoparia (KCHSC) ([19]; dosage 320 g/ha): 100%
Pre-emergence action against Bassia scoparia (KCHSC) ([19]; dosage 1280 g/ha): 100%
Post-emergence action against Setaria viridis (SETVI) ([20]; 320 g/ha): 100%
Post-emergence action against Setaria viridis (SETVI) ([20]; 1280 g/ha): 100%
Post-emergence action against Amaranthus retroflexus (AMARE) ([21]; dosage 320 g/ha): 100%
Post-emergence action against Amaranthus retroflexus (AMARE) ([21]; dosage 1280 g/ha): 100%
herbicidal activity against the harmful plants of Tables C1-C12 in pre-emergence treatment [22]: very good herbicidal activity
